In US20100267561A1, “HERBICIDAL PYRIDAZINONE DERIVATIVES” (priority 2007, published 2010):

Experiments:
Test in all cases: Test E pre-/postemergence plant response
Format in all cases: in vivo
Settings in all cases: scale 0 to 100
[1] = test system: broadleaf signalgrass (Brachiaria platyphylla)
Outline: (§1)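 Formulated in a non-phytotoxic solvent mixture containing surfactant, compound was applied to soil at planting or sprayed on emerged plants at the 1- to 4-leaf stage. Visual comparison with controls followed 14 to 21 days in the greenhouse; 0 = no effect, 100 = complete control.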

[2] = test system: quackgrass (Elytrigia repens)
Outline: as §1

[3] = test system: guineagrass (Panicum maximum)
Outline: as §1

[4] = test system: black mustard (Brassica nigra)
Outline: as §1

[5] = test system: large crabgrass (Digitaria sanguinalis)
Outline: as §1

[6] = test system: common mallow (Malva sylvestris)
Outline: as §1

[7] = test system: itchgrass (Rottboellia cochinchinensis)
Outline: as §1

[8] = test system: purple nutsedge (Cyperus rotundus)
Outline: as §1

[9] = test system: goosegrass (Eleusine indica)
Outline: as §1

[10] = test system: surinam grass (Brachiaria decumbens)
Outline: as §1

[11] = test system: common purslane (Portulaca oleracea)
Outline: as §1

[12] = test system: bermudagrass (Cynodon dactylon)
Outline: as §1

[13] = test system: dallisgrass (Paspalum dilatatum)
Outline: as §1

[14] = test system: green foxtail (Setaria viridis)
Outline: as §1

Cc1cc(-c2ccc(Cl)cc2)nn1-c1c(OC(=O)C(C)C)cnn(C)c1=O [Compound 34]
40: Plant response rating, Quackgrass ([2]; Postemergence, 62 g ai/ha) | Plant response rating, Bermudagrass ([12]; 16 g ai/ha, Preemergence)
100: Plant response rating, Signalgrass ([1]; 62 g ai/ha, Preemergence) | Plant response rating, Signalgrass ([1]; Postemergence, 62 g ai/ha) | Plant response rating, Guineagrass ([3]; 16 g ai/ha, Preemergence) | Plant response rating, Guineagrass ([3]; 31 g ai/ha, Preemergence) | Plant response rating, Guineagrass ([3]; 62 g ai/ha, Preemergence) | Plant response rating, Guineagrass ([3]; Postemergence, 31 g ai/ha) | Plant response rating, Guineagrass ([3]; Postemergence, 62 g ai/ha) | Plant response rating, Crabgrass, Large ([5]; 62 g ai/ha, Preemergence) | Plant response rating, Crabgrass, Large ([5]; Postemergence, 31 g ai/ha) | Plant response rating, Crabgrass, Large ([5]; Postemergence, 62 g ai/ha) | Plant response rating, Goosegrass ([9]; 62 g ai/ha, Preemergence) | Plant response rating, Surinam Grass ([10]; 31 g ai/ha, Preemergence) | Plant response rating, Surinam Grass ([10]; 62 g ai/ha, Preemergence) | Plant response rating, Surinam Grass ([10]; Postemergence, 31 g ai/ha) | Plant response rating, Surinam Grass ([10]; Postemergence, 62 g ai/ha) | Plant response rating, Bermudagrass ([12]; 62 g ai/ha, Preemergence) | Plant response rating, Foxtail, Green ([14]; 62 g ai/ha, Preemergence)
65: Plant response rating, Signalgrass ([1]; 16 g ai/ha, Preemergence) | Plant response rating, Goosegrass ([9]; 16 g ai/ha, Preemergence) | Plant response rating, Foxtail, Green ([14]; 16 g ai/ha, Preemergence)
30: Plant response rating, Quackgrass ([2]; Postemergence, 31 g ai/ha)
10: Plant response rating, Dallisgrass ([13]; Postemergence, 8 g ai/ha)
95: Plant response rating, Signalgrass ([1]; Postemergence, 31 g ai/ha) | Plant response rating, Guineagrass ([3]; Postemergence, 8 g ai/ha) | Plant response rating, Guineagrass ([3]; Postemergence, 16 g ai/ha) | Plant response rating, Itchgrass ([7]; Postemergence, 31 g ai/ha) | Plant response rating, Itchgrass ([7]; Postemergence, 62 g ai/ha) | Plant response rating, Goosegrass ([9]; 31 g ai/ha, Preemergence) | Plant response rating, Bermudagrass ([12]; Postemergence, 62 g ai/ha) | Plant response rating, Foxtail, Green ([14]; Postemergence, 31 g ai/ha)
50: Plant response rating, Quackgrass ([2]; 31 g ai/ha, Preemergence) | Plant response rating, Crabgrass, Large ([5]; 31 g ai/ha, Preemergence) | Plant response rating, Bermudagrass ([12]; Postemergence, 16 g ai/ha) | Plant response rating, Dallisgrass ([13]; 16 g ai/ha, Preemergence) | Plant response rating, Foxtail, Green ([14]; Postemergence, 8 g ai/ha)
60: Plant response rating, Crabgrass, Large ([5]; Postemergence, 8 g ai/ha)
75: Plant response rating, Signalgrass ([1]; Postemergence, 8 g ai/ha) | Plant response rating, Crabgrass, Large ([5]; Postemergence, 16 g ai/ha) | Plant response rating, Foxtail, Green ([14]; 31 g ai/ha, Preemergence) | Plant response rating, Foxtail, Green ([14]; Postemergence, 16 g ai/ha)
20: Plant response rating, Quackgrass ([2]; 16 g ai/ha, Preemergence) | Plant response rating, Nutsedge, Purple ([8]; 31 g ai/ha, Preemergence) | Plant response rating, Goosegrass ([9]; Postemergence, 16 g ai/ha) | Plant response rating, Bermudagrass ([12]; Postemergence, 8 g ai/ha) | Plant response rating, Dallisgrass ([13]; Postemergence, 16 g ai/ha) | Plant response rating, Dallisgrass ([13]; Postemergence, 31 g ai/ha)
0: Plant response rating, Quackgrass ([2]; Postemergence, 8 g ai/ha) | Plant response rating, Quackgrass ([2]; Postemergence, 16 g ai/ha) | Plant response rating, Mustard, Black ([4]; 16 g ai/ha, Preemergence) | Plant response rating, Mustard, Black ([4]; 31 g ai/ha, Preemergence) | Plant response rating, Mustard, Black ([4]; 62 g ai/ha, Preemergence) | Plant response rating, Mustard, Black ([4]; Postemergence, 8 g ai/ha) | Plant response rating, Mustard, Black ([4]; Postemergence, 16 g ai/ha) | Plant response rating, Mustard, Black ([4]; Postemergence, 31 g ai/ha) | Plant response rating, Mustard, Black ([4]; Postemergence, 62 g ai/ha) | Plant response rating, Mallow ([6]; 16 g ai/ha, Preemergence) | Plant response rating, Mallow ([6]; 31 g ai/ha, Preemergence) | Plant response rating, Mallow ([6]; 62 g ai/ha, Preemergence) | Plant response rating, Mallow ([6]; Postemergence, 8 g ai/ha) | Plant response rating, Mallow ([6]; Postemergence, 16 g ai/ha) | Plant response rating, Mallow ([6]; Postemergence, 31 g ai/ha) | Plant response rating, Mallow ([6]; Postemergence, 62 g ai/ha) | Plant response rating, Nutsedge, Purple ([8]; 16 g ai/ha, Preemergence) | Plant response rating, Nutsedge, Purple ([8]; Postemergence, 8 g ai/ha) | Plant response rating, Nutsedge, Purple ([8]; Postemergence, 16 g ai/ha) | Plant response rating, Nutsedge, Purple ([8]; Postemergence, 31 g ai/ha) | Plant response rating, Nutsedge, Purple ([8]; Postemergence, 62 g ai/ha) | Plant response rating, Goosegrass ([9]; Postemergence, 8 g ai/ha) | Plant response rating, Purslane ([11]; 16 g ai/ha, Preemergence) | Plant response rating, Purslane ([11]; 31 g ai/ha, Preemergence) | Plant response rating, Purslane ([11]; Postemergence, 8 g ai/ha) | Plant response rating, Purslane ([11]; Postemergence, 16 g ai/ha) | Plant response rating, Purslane ([11]; Postemergence, 31 g ai/ha) | Plant response rating, Purslane ([11]; Postemergence, 62 g ai/ha)
98: Plant response rating, Surinam Grass ([10]; 16 g ai/ha, Preemergence) | Plant response rating, Surinam Grass ([10]; Postemergence, 16 g ai/ha) | Plant response rating, Foxtail, Green ([14]; Postemergence, 62 g ai/ha)
70: Plant response rating, Quackgrass ([2]; 62 g ai/ha, Preemergence) | Plant response rating, Itchgrass ([7]; Postemergence, 8 g ai/ha) | Plant response rating, Dallisgrass ([13]; Postemergence, 62 g ai/ha)
90: Plant response rating, Signalgrass ([1]; 31 g ai/ha, Preemergence) | Plant response rating, Itchgrass ([7]; 62 g ai/ha, Preemergence) | Plant response rating, Surinam Grass ([10]; Postemergence, 8 g ai/ha) | Plant response rating, Bermudagrass ([12]; 31 g ai/ha, Preemergence)
35: Plant response rating, Nutsedge, Purple ([8]; 62 g ai/ha, Preemergence)
85: Plant response rating, Signalgrass ([1]; Postemergence, 16 g ai/ha) | Plant response rating, Itchgrass ([7]; 31 g ai/ha, Preemergence) | Plant response rating, Dallisgrass ([13]; 31 g ai/ha, Preemergence) | Plant response rating, Dallisgrass ([13]; 62 g ai/ha, Preemergence)
80: Plant response rating, Itchgrass ([7]; 16 g ai/ha, Preemergence) | Plant response rating, Itchgrass ([7]; Postemergence, 16 g ai/ha) | Plant response rating, Goosegrass ([9]; Postemergence, 31 g ai/ha) | Plant response rating, Goosegrass ([9]; Postemergence, 62 g ai/ha) | Plant response rating, Bermudagrass ([12]; Postemergence, 31 g ai/ha)
